Reference: the supplement of paper PMC10307832

Experiments:
Experiment in all cases: relative viability (nuclei count vs DMSO), 5 days (fraction); higher = more cells survive
XMD8-85 + Navitoclax = compound: CN1CCN(CC1)C2=CC(=C(C=C2)NC3=NC=C4C(=N3)N(C5=CC=CC=C5C(=O)N4C)C)OC [XMD8-85] + CC1(C)CCC(c2ccc(Cl)cc2)=C(CN2CCN(c3ccc(C(=O)NS(=O)(=O)c4ccc(N[C@H](CCN5CCOCC5)CSc5ccccc5)c(S(=O)(=O)C(F)(F)F)c4)cc3)CC2)C1 [Navitoclax] (partner 0.5 µM)
Summary of the method: (§1)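 The day after seeding in 1536-well plates, lung cancer cell lines were treated by pin tool with a single drug, or with a fixed anchor-drug dose together with five library-drug doses (not always all listed) in √10 steps. After 5 days, a combined fix-and-stain solution (final 0.05% Triton X-100, 1% formaldehyde, 1 ug/ml Hoechst) was added. Nuclei counted on 4× images gave relative viability as treated counts over vehicle counts, reported as the median of duplicate plates.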

XMD8-85 + Foretinib = compound: CN1CCN(CC1)C2=CC(=C(C=C2)NC3=NC=C4C(=N3)N(C5=CC=CC=C5C(=O)N4C)C)OC [XMD8-85] + COc1cc2c(Oc3ccc(NC(=O)C4(C(=O)Nc5ccc(F)cc5)CC4)cc3F)ccnc2cc1OCCCN1CCOCC1 [Foretinib] (partner 0.25 µM)
Summary of the method: as §1

XMD8-85 = compound: CN1CCN(CC1)C2=CC(=C(C=C2)NC3=NC=C4C(=N3)N(C5=CC=CC=C5C(=O)N4C)C)OC [XMD8-85]
Summary of the method: (§2)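 For viability, nuclei in each treated well were divided by nuclei in vehicle wells and the median across plates was taken. Lung cancer cell lines in 1536-well plates were pinned with five library-drug doses (not always all listed) spaced by √10, cultured 5 days without medium change, and imaged at 4× after Hoechst staining, with plates passing only at control CV below 25% and at least one doubling.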

4EGI-1 = compound: O=C(O)C(Cc1ccccc1[N+](=O)[O-])=NNc1nc(-c2ccc(Cl)c(Cl)c2)cs1 (mixture of isomers) [4EGI-1]
Summary of the method: as §2

Cell Line | relative viability (XMD8-85 + Navitoclax; first compound 0.08 µM) | relative viability (XMD8-85 + Navitoclax; first compound 0.253 µM) | relative viability (XMD8-85 + Navitoclax; first compound 2.53 µM) | relative viability (XMD8-85 + Navitoclax; first compound 8 µM) | relative viability (XMD8-85 + Foretinib; first compound 0.08 µM) | relative viability (XMD8-85 + Foretinib; first compound 0.253 µM) | relative viability (XMD8-85 + Foretinib; first compound 0.8 µM) | relative viability (XMD8-85 + Foretinib; first compound 2.53 µM) | relative viability (XMD8-85 + Foretinib; first compound 8 µM) | relative viability (XMD8-85; 0.08 µM) | relative viability (XMD8-85; 0.253 µM) | relative viability (XMD8-85; 0.8 µM) | relative viability (XMD8-85; 2.53 µM) | relative viability (XMD8-85; 8 µM) | relative viability (4EGI-1; 0.5 µM) | relative viability (4EGI-1; 1.581 µM) | relative viability (4EGI-1; 5 µM) | relative viability (4EGI-1; 15.81 µM) | relative viability (4EGI-1; 50 µM) | relative viability (XMD8-85 + Navitoclax; first compound 0.8 µM)
LC-2-ad | 0.512 | 0.364 | 0.574 | 0.328 | 0.866 | 0.976 | 0.995 | 0.785 | 0.607 | 1.02 | 0.987 | 1.03 | 0.925 | 0.498 | 1.06 | 0.716 | 0.969 | 0.526 | 0.248 | –
LCLC-97TM1 | 0.299 | 0.474 | 0.329 | 0.796 | 0.934 | 0.95 | 0.959 | 1.01 | 1 | 0.915 | 0.991 | 1.24 | 1.09 | 1.05 | 1.01 | – | 1.19 | 0.963 | 0.632 | 0.442
SW 900 | – | – | – | – | 0.942 | 0.922 | 1.58 | 0.466 | 0.403 | 0.791 | 1.04 | 0.759 | 0.861 | 0.465 | 1.05 | 0.755 | 0.89 | 0.642 | 0.213 | –
NCI-H460 | 1.07 | 1.21 | 1.22 | 0.415 | 1.07 | 1.09 | 1.05 | 0.948 | 0.78 | 0.998 | 1.01 | 1.02 | 0.997 | 0.651 | 1.03 | – | 1.06 | 0.847 | 0.25 | 1.14
UMC-11 | 0.356 | 0.312 | 0.301 | 0.234 | 1.17 | 0.949 | 1.21 | 0.913 | 0.651 | 1.03 | 0.982 | 1.11 | 0.964 | 0.739 | 1.13 | 1.11 | 1.01 | 0.986 | 0.403 | 0.322
HCC-827 | 1.02 | 1.01 | 0.909 | 1.03 | 1.03 | 1.1 | 0.948 | 1.13 | 1.11 | 1.03 | 1.04 | 1.01 | 1.08 | 1.04 | 1.02 | 0.923 | 1.07 | – | 0.922 | 0.985
201T | 1.2 | 1.24 | 1.19 | 1.08 | 1.13 | 1.24 | 1.13 | 0.733 | 0.703 | 1 | 0.983 | 0.986 | 0.978 | 0.757 | 1.05 | 0.955 | 1.05 | 0.965 | 0.806 | 1.26
NCI-H1755 | 1.03 | 1.04 | 0.984 | 0.838 | 0.873 | 0.921 | 0.88 | 0.97 | 0.783 | 1.02 | 1.08 | 0.96 | 1.02 | 1.03 | 1.04 | 1.04 | 0.957 | 0.896 | 0.622 | 0.953
NCI-H1944 | 1.13 | 1.1 | 1.16 | 1.12 | – | 1.04 | 0.898 | 0.836 | 0.571 | 0.873 | 0.993 | 1.02 | 1.22 | 0.973 | 1.03 | – | 0.996 | 0.738 | 0.574 | 1.18
NCI-H1623 | – | – | – | – | 0.986 | 0.816 | 0.789 | 0.857 | 0.667 | 0.906 | 0.891 | 0.88 | 0.986 | 0.833 | 1.17 | 0.85 | 1.07 | 0.783 | 0.843 | –
NCI-H1563 | – | – | – | – | 1.05 | 0.935 | 0.836 | 0.892 | 0.767 | 1.06 | 0.925 | 0.904 | 0.951 | 0.88 | 1.1 | 0.875 | 0.976 | 0.893 | 0.625 | –
NCI-H1666 | 0.932 | 1 | 0.729 | 0.727 | 0.991 | 0.988 | 0.963 | 0.893 | 0.886 | 0.965 | 0.963 | 0.919 | 0.971 | 0.998 | 1.05 | 0.942 | 1.09 | 0.781 | 0.436 | 0.865
LCLC-103H | – | – | – | – | 0.842 | 0.919 | 0.692 | 0.857 | 0.554 | 0.929 | 1.03 | 1.05 | 1.04 | 0.88 | 1.01 | 0.929 | 1.01 | 0.972 | 0.696 | –
NCI-H1734 | 0.806 | 0.888 | 0.952 | 0.504 | 0.858 | 0.853 | 0.896 | 0.842 | 0.629 | 0.946 | 0.988 | 1.11 | 1.08 | 0.758 | 1.06 | 0.949 | 1.14 | 0.831 | 0.353 | 0.78
HOP-62 | 0.996 | 1.08 | 0.992 | 0.79 | 1.14 | 1.13 | 0.971 | 0.946 | 0.466 | 1.08 | 1.06 | 0.952 | 1.01 | – | 1.02 | – | 1.02 | 0.999 | 0.744 | 0.939
HCC-15 | 0.731 | 0.642 | 0.655 | 0.499 | 1.05 | 1.01 | 0.963 | 1.05 | 0.766 | 1.01 | 1.02 | 1.08 | 1.06 | 0.849 | 0.982 | 1.02 | 1.02 | 0.947 | 0.583 | 0.698
NCI-H2405 | 0.877 | 1.09 | 0.662 | 0.427 | 1.07 | 1.08 | 1.07 | 1.04 | 0.984 | 1.02 | 1.06 | 1.06 | 1.01 | 0.781 | 1.04 | 0.819 | 1.08 | 1.03 | 0.984 | 1.08
